Type in all cases: in vivo
Series [1] concerns Abutilon theophrasti. The series is described as follows: Herbicidal action post-emergence (greenhouse pot trial). The settings on record: application rate 20 g/ha, scored visually after about 3 weeks vs untreated controls. Here is the method:
(§1) Seeds of mono- and dicotyledonous weed plants and crop plants are laid out in sandy loam soil in plastic or wood-fiber pots, covered with earth and grown under controlled growth conditions in a greenhouse. 2 to 3 weeks after sowing, the trial plants are treated at the one-leaf stage. The compounds of the invention formulated in the form of wettable powders (WP) or emulsion concentrates (EC) were then sprayed onto the green parts of the plant as an aqueous suspension or emulsion with addition of 0.5% additive at a water application rate equivalent to 600 L/ha. After the trial plants had stood for about 3 weeks in the greenhouse, under optimal growth conditions, the effect of the preparations was scored visually by comparison with untreated controls. For example, 100% efficacy=plants have died, 0% efficacy=like control plants. Tables A1 to A15 below show the efficacies of selected compounds of the general formula (I) according to tables I.1 to I.60 on various harmful plants and an application rate corresponding to 80 g/ha or lower that were obtained by the aforementioned trial method.

Series [2] concerns Amaranthus retroflexus. The series is described as above. The conditions noted are these: application rate 20 g/ha, scored visually after about 3 weeks vs untreated controls. As for the experimental part: as §1
Series [3] has as its system Matricaria inodora. The series is described as above. The settings on record: application rate 20 g/ha, scored visually after about 3 weeks vs untreated controls. Here is the method: as §1
The test system of series [4] is Pharbitis purpurea. The description is as above. The conditions noted are these: application rate 20 g/ha. As for the experimental part: as §1
Series [5] deals with Polygonum convolvulus. Described as above. The conditions noted are these: application rate 20 g/ha, scored visually after about 3 weeks vs untreated controls. Here is the method:
as §1

Series [6] has as its system Stellaria media. Described as above. The conditions noted are these: application rate 20 g/ha, scored visually after about 3 weeks vs untreated controls. Here is the method:
as §1

For series [7], the system named is Veronica persica. The description is as above. The conditions noted are these: application rate 20 g/ha. As for the experimental part:
as §1

For series [8], the system named is Viola tricolor. The series is described as above. The conditions noted are these: application rate 20 g/ha. Here is the method:
as §1

The subject of series [9] is Oryza sativa. The series is described as follows: Crop compatibility post-emergence (greenhouse pot trial). The settings on record: application rate 20 g/ha. Here is the method:
as §1, with “plants.” for “plants. Tables A1 to A15 below show the efficacies of selected compounds of the general formula (I) according to tables I.1 to I.60 on various harmful plants and an application rate corresponding to 80 g/ha or lower that were obtained by the aforementioned trial method.”
(§2) Crop plant compatibilities were also scored correspondingly.
(§3) The effects observed are reported here on selected crop plants by comparison with the untreated controls (values in %).

The test system of series [10] is Triticum aestivum. The series is described as above. As for the experimental part: as §1, with “plants.” for “plants. Tables A1 to A15 below show the efficacies of selected compounds of the general formula (I) according to tables I.1 to I.60 on various harmful plants and an application rate corresponding to 80 g/ha or lower that were obtained by the aforementioned trial method.”
as §2, §3

As for `CC(Sc1cc(-n2c(=O)cc(C(F)(F)F)n(C)c2=O)c(F)cc1Cl)C(=O)NCCCOCc1ccccc1` (stereo not drawn) [I.1-180], in [1], the “Abutilon theophrasti (Efficacy in %)” value was found to be 100%. Moreover, in series [2], the “Amaranthus retroflexus (Efficacy in %)” value is given as 100%. Besides, the “Matricaria inodora (Efficacy in %)” value in series [3] was found to be 100%. For the same compound, the “Pharbitis purpurea (Efficacy in %)” value in series [4] is listed as 100%. The “Polygonum convolvulus (Efficacy in %)” value in [5] was determined as 100%. The “Stellaria media (Efficacy in %)” value in series [6] is listed as 90%. Further, in [7], the “Veronica persica (Efficacy in %)” value was determined as 100%. For the same compound, the “Viola tricolor (Efficacy in %)” value in series [8] stood at 100%. Moreover, the “Oryza sativa (Efficacy in %)” value in series [9] is 0%. Besides, the “Triticum aestivum (Efficacy in %)” value in [10] (application rate 20 g/ha) came out at 20%.
Regarding `CC(Sc1cc(-n2c(=O)cc(C(F)(F)F)n(C)c2=O)c(F)cc1Cl)C(=O)NCC1COCCO1` (stereo not drawn) [I.1-331], the “Abutilon theophrasti (Efficacy in %)” value in series [1] was found to be 100%. Also, in [2], the “Amaranthus retroflexus (Efficacy in %)” value is on record as 100%. Further, the “Matricaria inodora (Efficacy in %)” value in [3] was 90%. Further, the “Stellaria media (Efficacy in %)” value in series [6] is 80%. Besides, in [7], the “Veronica persica (Efficacy in %)” value came to 100%. In addition, the “Viola tricolor (Efficacy in %)” value in [8] is listed as 100%. Moreover, the “Oryza sativa (Efficacy in %)” value in [9] amounted to 10%.
For `Cc1c(C(F)(F)F)n(C)c(=O)n(-c2cc(SC(CC(C)C)C(=O)NCC3CCCO3)c(Cl)cc2F)c1=O` (stereo not drawn) [I.14-221], the “Abutilon theophrasti (Efficacy in %)” value in series [1] is listed as 90%. Further, the “Amaranthus retroflexus (Efficacy in %)” value in [2] is recorded as 100%. In [3], the “Matricaria inodora (Efficacy in %)” value was found to be 80%. In addition, in [4], the “Pharbitis purpurea (Efficacy in %)” value turned out to be 100%. Besides, in series [5], the “Polygonum convolvulus (Efficacy in %)” value is 80%. Besides, the “Veronica persica (Efficacy in %)” value in [7] was determined as 100%. In addition, the “Viola tricolor (Efficacy in %)” value in series [8] came to 100%. Further, in series [9], the “Oryza sativa (Efficacy in %)” value was 10%. The “Triticum aestivum (Efficacy in %)” value in series [10] (application rate 20 g/ha) is on record as 20%.
As to `CC1CC(COC(=O)C(C)(C)CSc2cc(-n3c(=O)cc(C(F)(F)F)n(C)c3=O)c(F)cc2Cl)CO1` (stereo not drawn) [I.48-73], the “Abutilon theophrasti (Efficacy in %)” value in series [1] is given as 100%. In [2], the “Amaranthus retroflexus (Efficacy in %)” value was 100%. The “Matricaria inodora (Efficacy in %)” value in series [3] was 80%. In series [4], the “Pharbitis purpurea (Efficacy in %)” value is 100%. Further, in series [5], the “Polygonum convolvulus (Efficacy in %)” value stood at 80%. For the same compound, the “Stellaria media (Efficacy in %)” value in [6] stood at 100%. Moreover, in series [7], the “Veronica persica (Efficacy in %)” value is 100%. For the same compound, in [8], the “Viola tricolor (Efficacy in %)” value is recorded as 100%. Also, the “Oryza sativa (Efficacy in %)” value in series [9] worked out at 0%. Further, the “Triticum aestivum (Efficacy in %)” value in [10] (application rate 20 g/ha) is given as 0%.
Consider `Cn1c(C(F)(F)F)cc(=O)n(-c2cc(SCC(C)(C)C(=O)OCC3CCSC3)c(Cl)cc2F)c1=O` (stereo not drawn) [I.48-82, Tetrahydrothiophen-3-ylmethyl 3-({2-chloro-4-fluoro-5-[3-methyl-2,6-dioxo-4-(trifluoromethyl)-3,6-dihydropyrimidin-1(2H)-yl]phenyl}sulfanyl)-2,2-dimethylpropanoate], for which the “Abutilon theophrasti (Efficacy in %)” value in [1] was found to be 100%. In series [2], the “Amaranthus retroflexus (Efficacy in %)” value is listed as 100%. Moreover, the “Polygonum convolvulus (Efficacy in %)” value in series [5] is 100%. In series [10] (application rate 5 g/ha), the “Triticum aestivum (Efficacy in %)” value is recorded as 0%.
Take `CC(CC(=O)OCC1CCOC1)Sc1cc(-n2c(=O)cc(C(F)(F)F)n(C)c2=O)c(F)cc1Cl` (stereo not drawn) [I.49-72]: the “Abutilon theophrasti (Efficacy in %)” value in [1] is listed as 100%. Moreover, the “Amaranthus retroflexus (Efficacy in %)” value in series [2] came out at 100%. In series [3], the “Matricaria inodora (Efficacy in %)” value came to 90%. The “Veronica persica (Efficacy in %)” value in series [7] is 100%. Moreover, the “Viola tricolor (Efficacy in %)” value in [8] was 100%. The “Oryza sativa (Efficacy in %)” value in series [9] is on record as 10%.
For the compound `CC(CC(=O)NCC1CCCO1)Sc1cc(-n2c(=O)cc(C(F)(F)F)n(C)c2=O)c(F)cc1Cl` (stereo not drawn) [I.49-221], the “Abutilon theophrasti (Efficacy in %)” value in [1] stood at 100%. Besides, the “Amaranthus retroflexus (Efficacy in %)” value in series [2] stood at 100%. Also, in [3], the “Matricaria inodora (Efficacy in %)” value worked out at 90%. Moreover, the “Pharbitis purpurea (Efficacy in %)” value in [4] stood at 100%. Further, the “Polygonum convolvulus (Efficacy in %)” value in [5] amounted to 100%. The “Stellaria media (Efficacy in %)” value in [6] came to 90%. In addition, the “Veronica persica (Efficacy in %)” value in [7] is listed as 100%. For the same compound, in series [9], the “Oryza sativa (Efficacy in %)” value was determined as 10%.
